Values quoted from earlier work in patent publication US20090181887A1, “USE OF A GLP-1 MOLECULE FOR TREATMENT OF BILIARY DYSKINESIA AND/OR BILIARY PAIN/DISCOMFORT” (Gastrotech Pharma A/S, priority 2005, published 2009).
Where no end group is shown, it is not given here.

Conditions: in man; Wettergren et al, 1993; Gutniak et al, 1996

For “glucagon-like peptide-1 (HAEGTFTSDVSSYLEGQAAKEFIAWLVKGR-NH2; ends and bridges not checked; UniProt P01275 98-127, looked up) [GLP-1, gastrointestinal peptide hormone; natural forms GLP-1 (7-36)amide and GLP-1 (7-37)]”, the “slowing of gastric emptying” value is given as 50%.
